For series [1] the following is noted: solvent in water, visual assessment of undissolved solvent. The method, then: Herein, various amounts of solvent and water were mixed with vigorous shaking in a glass-stoppered graduated cylinder or separating funnel, followed by standing for at least 30 min to enable separation. […] This method can be repeated with various amounts of solvent and water to enable the determination of the water-solubility of the solvent.

Series [2] has as its system Abutilon theophrasti. The experiment in a line: Rate of penetration measured by Fluorescence Index enhancement (PS II inhibitor Na Bentazone into leaf). The format is in vivo. Set-up: scale not given here. Conditions: Na B + E + S: 0.64% w/w Na Bentazone, 0.1% emulsifier, 0.9% solvent in CIPAC D water; two 5 μl droplets on leaf, 1 h. The source says:
PS II inhibitors effectively block the chlorophyll photosynthetic pathways within the leaf, resulting in enhanced fluorescence from the non-adsorbed incident light. The resulting emitted light can be measured at selected time intervals, enabling the determination of the rate of uptake of the PS II inhibitor and thus penetration effect of the selected adjuvant.
The following experiments were on the broadleaf weed Abutilon theophrasti (EPPO code ABUTH) at a Biologische Bundesanstalt, Bundessortenamt und Chemische Industrie (BBCH) growth stage 13 to 14.
The penetration experiments are conducted via the deposition of two droplets (5 μl) of the herbicide/emulsifier/lactone-based solvent formulation onto the leaf surface. The droplets are allowed to stand on the leaf surface for 1 h, after which a fluorescence image of the exposed leaf surface is recorded using the PAM chlorophyll fluorescence imaging system (Imaging PAM, Heinz-Walz GmbH, Germany). The resulting “Total Fluorescence” and “Fluorescence Area” are then quantified via the analysis of the recorded fluorescence image using image analysis software. This enables the calculation of the “Fluorescence Index”:
The “Fluorescence Index” is a therefore a direct measurement of the penetration of the active ingredient into the plant leaf and can thus be used to measure enhanced penetration via the use of selected adjuvants. Identical experiments are conducted on 7 further leaves using the same formulation to account for biological variability and experimental error.

Series [3] relates to Soya plants. Put plainly: Phytotoxicity determination on Soya. Conditions: 200 L/ha of 1% w/w emulsion (EC 90% w/w solvent, 10% w/w emulsifier); after 14 days; visual scale 0% to 100%. The class given is in vivo. The protocol: Soya plants grown under standard greenhouse conditions in the growth stage 13 were treated with aqueous emulsions in a spray cabin. The resulting plant spray dosage represented an application rate of 200 L/ha of 1% w/w emulsion, corresponding to the application of 2 L/ha of the emulsifiable concentrate. […] The experimental period lasted 14 days, during which time the Soya plants were given optimum watering, nutrients, and light.
An assessment of 1 to 10% phytotoxicity is the limit of acceptable plant damage by farmers.

Bounds are passed on as bounds.

As for `CC1CCC(=O)O1` (centres unmarked) [Gamma-valerolactone], the Water solubility in series [1] is recorded as 100 % w/w. Moreover, the “Fluorescence Index” value in series [2] is listed as 4.85.
The compound `CCCCCC1CCCC(=O)O1` (centres unmarked) [Delta-decalactone] displayed a Water solubility in series [1] of 0.4 % w/w. Besides, the “Fluorescence Index” value in series [2] came to 9.66.
Taken in the same sequence, the figures for `CCCCCCC1CCC(=O)O1` (centres unmarked) [Gamma-decalactone] were 0.1 % w/w and 14.13.
In the case of `CCCCC1OC(=O)CC1C` (stereo not drawn) [Beta-methyl-gamma-octalactone], the Water solubility in series [1] is at most 0.2 % w/w.
Same read-out and setting: in the case of `CCCCCCCCC1CCCC(=O)O1` (centres unmarked) [Delta-tridecalactone] it was under 0.1 % w/w.
Consider `CCCCC1CCC(=O)O1` (centres unmarked) [Gamma-octalactone], for which the Water solubility in series [1] came out at 0.8 % w/w. For the same compound, in series [2], the “Fluorescence Index” value came out at 8.80.
In series [1], `CCCCCC1CCC(=O)O1` (centres unmarked) [Gamma-nonalactone] registered a Water solubility of 0.2 % w/w. Further, the “Fluorescence Index” value in series [2] is recorded as 16.44. This compound returned a phytotoxicity in series [3] of 0%.
`CCCC(C)C1CCC(=O)O1` (centres unmarked) [Delta-methyl-gamma- octalactone, Delta-methyl-gamma-octalactone] showed a Water solubility in series [1] of at most 0.2 % w/w.
With `CCCCCCCC1CCC(=O)O1` (centres unmarked) [Gamma-undecalactone], the “Fluorescence Index” value in series [2] was 11.67.
The compound `CCCCCCCC1CCCC(=O)O1` (centres unmarked) [Delta-dodecalactone] gave a Water solubility in series [1] of 0.07 % w/w. The “Fluorescence Index” value in series [2] was 15.21.
The compound `CCCC(C)C1OC(=O)CC1C` (stereo not drawn) [Beta, delta-dimethyl- gamma-octalactone, Beta,delta-dimethyl-gamma-octalactone] yielded a Water solubility in series [1] of at most 0.2 % w/w.
`CCC1CCC(=O)O1` (centres unmarked) [Gamma-hexalactone]: the Water solubility in series [1] stood at 8 % w/w. Further, the “Fluorescence Index” value in series [2] is recorded as 6.11.
`CCCCC1CCCC(=O)O1` (centres unmarked) [Delta-nonalactone] gave a Water solubility in series [1] of 1.2 % w/w.
In series [3], `CCCCCCCCCC(=O)N(C)C` [Dimethyl decanamide, reference compound] yielded a phytotoxicity of 50%.
As for `CCCCCCCCC1CCC(=O)O1` (centres unmarked) [Gamma-dodecalactone], in series [1], the Water solubility was under 0.02 % w/w.

The values are drawn from US20260101887A1, “AN EMULSIFIABLE CONCENTRATE HAVING A LACTONE-BASED SOLVENT SYSTEM” (priority 2022, published 2026).
